Measurements published in the NIST ThermoML archive (doi:10.1021/je300153f).
± gives the expanded uncertainty stated by the source.

Conditions: for mass density / electrical conductivity / viscosity: 101.33 kPa; for mass density / electrical conductivity / surface tension liquid-gas / viscosity: Liquid; for electrical conductivity: MP522 conductivity meter; for surface tension liquid-gas: Maximal bubble pressure; for viscosity: Capillary tube (Ostwald / Ubbelohde) method

## CCCC[n+]1cccc(C)c1.O=S(=O)([N-]S(=O)(=O)C(F)(F)F)C(F)(F)F
278.15 K
  mass density: 1439.9 ± 5.8 kg/m3
  electrical conductivity: 0.1 ± 0.002 S/m
283.15 K
  mass density: 1435.7 ± 5.8 kg/m3
  electrical conductivity: 0.132 ± 0.003 S/m
  surface tension liquid-gas: 29.2 ± 0.3 mN/m
288.15 K
  mass density: 1431.5 ± 5.7 kg/m3
  electrical conductivity: 0.172 ± 0.004 S/m
  surface tension liquid-gas: 28.8 ± 0.3 mN/m
293.15 K
  mass density: 1427.1 ± 5.7 kg/m3
  electrical conductivity: 0.217 ± 0.005 S/m
  surface tension liquid-gas: 28.4 ± 0.3 mN/m
298.15 K
  mass density: 1422.6 ± 5.7 kg/m3
  viscosity: 63.2 ± 1.4 mPa·s
  electrical conductivity: 0.272 ± 0.006 S/m
  surface tension liquid-gas: 28.2 ± 0.3 mN/m
303.15 K
  mass density: 1418.3 ± 5.7 kg/m3
  viscosity: 51.1 ± 1.1 mPa·s
  electrical conductivity: 0.335 ± 0.007 S/m
  surface tension liquid-gas: 27.8 ± 0.3 mN/m
308.15 K
  mass density: 1414.2 ± 5.7 kg/m3
  viscosity: 41.4 ± 0.9 mPa·s
  electrical conductivity: 0.409 ± 0.009 S/m
  surface tension liquid-gas: 27.4 ± 0.3 mN/m
313.15 K
  mass density: 1409.8 ± 5.7 kg/m3
  viscosity: 34 ± 0.8 mPa·s
  electrical conductivity: 0.49 ± 0.01 S/m
  surface tension liquid-gas: 27.2 ± 0.3 mN/m
318.15 K
  mass density: 1405.1 ± 5.6 kg/m3
  viscosity: 28.4 ± 0.6 mPa·s
  electrical conductivity: 0.576 ± 0.012 S/m
  surface tension liquid-gas: 26.7 ± 0.3 mN/m
323.15 K
  mass density: 1400.7 ± 5.6 kg/m3
  viscosity: 23.9 ± 0.5 mPa·s
  electrical conductivity: 0.69 ± 0.014 S/m
  surface tension liquid-gas: 26.4 ± 0.3 mN/m
328.15 K
  mass density: 1396.4 ± 5.6 kg/m3
  viscosity: 20.3 ± 0.4 mPa·s
  electrical conductivity: 0.796 ± 0.017 S/m
  surface tension liquid-gas: 26.1 ± 0.3 mN/m
333.15 K
  mass density: 1392.1 ± 5.6 kg/m3
  viscosity: 17.5 ± 0.4 mPa·s
  electrical conductivity: 0.91 ± 0.019 S/m
  surface tension liquid-gas: 25.8 ± 0.3 mN/m
338.15 K
  mass density: 1387.6 ± 5.6 kg/m3
  viscosity: 15.2 ± 0.3 mPa·s
  electrical conductivity: 1.03 ± 0.021 S/m
  surface tension liquid-gas: 25.4 ± 0.3 mN/m
343.15 K
  viscosity: 13 ± 0.3 mPa·s
  electrical conductivity: 1.16 ± 0.024 S/m
348.15 K
  viscosity: 11.3 ± 0.3 mPa·s
  electrical conductivity: 1.3 ± 0.027 S/m
353.15 K
  viscosity: 10 ± 0.2 mPa·s
  electrical conductivity: 1.44 ± 0.029 S/m
Glass, DTA
  Glass transition temperature: -82.3 ± 3 °C
